Experiments:
Format in all cases: cell-based, human
p21waf1/cip1 [1] = experiment: Immunofluorescent staining of p21; settings: 30 μM LPA, 300 μM ACI, day 2 and day 4
Protocol: (§1) FIG. 3 is a set of photographs illustrating the effect of LPA and ACI on the expressions of p21 and cyclin-D1 in young and senescent cells. Particularly, a-f, g-l and m-r are photographs illustrating that sub-cultured young cells (PD 20: Y) and senescent cells (PD 65: S) were serum-starved for 48 hours respectively, followed by treatment of LPA (a-f) and ACI (g-l) singly or together (m-r), and after culturing for 1, 2, and 4 days, the cells were fixed in 4% hydrogen peroxide, and stained with p21waf1/cip1 (A) and cyclin D1 (B) antibodies, followed by confirming immunofluorescence. At this time, nucleus was stained with DAPI.
(§2) Coverslips were placed on 24 well plate on which required amounts of young and senescent cells were distributed. Media were eliminated and the treated cells were washed with PBS twice. Then, the cells were fixed with 4% hydrogen peroxide. Non-specific protein staining was blocked using PBS containing 2% BSA (blocking serum). The cells were stained with primary antibody such as anti-AMPKα, anti-p-Thr172-AMPKα, anti-p-Ser485/491-AMPKα, anti-p53, anti-p-Ser15-p53, anti-p21waf1/cip1, and anti-cyclin D1. To stain nucleus, DAPI (1:1000) was also added, followed by observation under Zeiss LSM 510 laser scanning microscope.
Cells were treated with 30 μM of LPA, 300 μM of ACI or LPA+ACI for 4 days, followed by immunofluorescence to investigate p21 and cyclin D1 expressions (FIG. 3A). As a result, when young cells were treated with ACI alone or LPA+ACI, p21 expression was increased on day 2 and day 4 (FIG. 3A).

cyclin D1 = experiment: Immunofluorescent staining of cyclin D1; settings: 30 μM LPA
Protocol: as §1
as §2, with “microscope. […]” for “microscope.”

p-Ser485/491-AMPKα = experiment: Immuno-blotting of p-Ser485/491-AMPKα; settings: for p-Ser485/491-AMPKα expression after suppressing PKA: senescent cells pre-treated with 10 mM PKA inhibitor Rp-cAMP for one hour; for Ser485/491-AMPKα phosphorylation: 30 μM LPA, 300 μM ACI, up to day 4
Protocol: (A) and (B) are photographs illustrating the results of immuno-blotting. Precisely, sub-cultured young cells (PD 18: A) and senescent cells (PD 64: B) were treated with 30 μM of LPA […] and ACI singly or together, followed by further culture for 1, 2, and 4 days. Proteins were extracted from the cultured cells and the levels of AMPKα, p-Thr172-AMPKα, p-Ser485/491-AMPKα, p53, p-Ser15-p53, p21waf1/cip1 and β-actin were quantified by immuno-blotting.
(A) and (B) are photographs illustrating the results of immuno-blotting. Precisely, senescent cells (PD 64) were pre-treated with 10 mM of PKA inhibitor Rp-cAMP for one hour, followed by treatment with LPA(A) or ACI(B). After culturing the cells for 1, 2, and 4 days, proteins were extracted from the cultured cells and the levels of AMPKα, p-Thr172-AMPKα, p-Ser485/491-AMPKα, p53, p-Ser15-p53, p21waf1/cip1 and β-actin were quantified by immuno-blotting using 45 μg of the protein.
To analyse protein expression, human fibroblasts were lysed in cold lysis buffer (25 mM Hepes, pH 8.0, 150 mM NaCl, 1 mM EDTA, 1 mM Na3VO4, 1 mM NaF, 1% Triton X-100 and protease inhibitors), followed by centrifugation at 4° C. at 9,000 rpm for 10 minutes to obtain supernatant. Protein in the extract was quantified […]. SDS-PAGE electrophoresis was performed with equal amount of the protein (45 μg) to separate. The separated protein was transferred onto NC membrane from the electrophoresis gel. Non-specific protein binding was blocked by blocking the blot (transferred NC membrane) using TTBS […] containing 5% skim milk for one hour. Then, antigen-antibody reaction was induced with diluted primary antibody at 4° C. for overnight. The blot was washed with TTBS, followed by reaction with horseradish peroxidase conjugated anti-IgGs diluted in TTBS containing 5% skim milk (1:5000) at room temperature for one hour. The blot was washed again with TTBS to eliminate non-specific binding of antigen-antibody. Photographs were developed/printed on X-ray film (Kodak) using ECL kit (Pierce) containing peroxidase substrate to identify each protein.

p21waf1/cip1 [2] = experiment: Immuno-blotting of p21waf1/cip1; settings: for p21 expression after suppressing PKA: senescent cells pre-treated with 10 mM PKA inhibitor Rp-cAMP for one hour; for p21 expression (immuno-blotting): senescent cells, 30 μM LPA, 300 μM ACI, 10 mM AMPKI, 10 mM AICAR
Protocol: (A) and (B): Young and senescent cells were serum-starved for 2 days, followed by treatment with 10 mM of AMPK inhibitor […]) or 10 mM of AMPK activator AICAR(B) for 4 days. Proteins were extracted from the treated cells and the levels of AMPKα and p-Thr172-AMPKα, total p53, p-Ser15-p53 and […] measured by immuno-blotting. (C) and (D): Young cells (C) and senescent cells (D) were treated with 10 mM AMPKI or 10 mM AICAR and cultured for 4 days, followed by measurement of cell proliferation by cell counting. At this time, the experiment was repeated three times (p<0.001). (A) and (B) are photographs illustrating the results of immuno-blotting. Precisely, sub-cultured young cells (PD 18: A) and senescent cells (PD 64: B) were treated with 30 μM of LPA […] and ACI singly or together, followed by further culture for 1, 2, and 4 days. Proteins were extracted from the cultured cells and the levels of AMPKα, […] β-actin were quantified by immuno-blotting. (A) and (B) are photographs illustrating the results of immuno-blotting. Precisely, senescent cells (PD 64) were pre-treated with 10 mM of PKA inhibitor Rp-cAMP for one hour, followed by treatment with LPA(A) or ACI(B). After culturing the cells for 1, 2, and 4 days, proteins were extracted from the cultured cells and the levels of AMPKα, […] β-actin were quantified by immuno-blotting using 45 μg of the protein. To analyse protein expression, human fibroblasts were lysed in cold lysis buffer (25 mM Hepes, pH 8.0, 150 mM NaCl, 1 mM EDTA, 1 mM Na3VO4, 1 mM NaF, 1% Triton X-100 and protease inhibitors), followed by centrifugation at 4° C. at 9,000 rpm for 10 minutes to obtain supernatant. Protein in the extract was quantified […]. SDS-PAGE electrophoresis was performed with equal amount of the protein (45 μg) to separate. The separated protein was transferred onto NC membrane from the electrophoresis gel. Non-specific protein binding was blocked by blocking the blot (transferred NC membrane) using TTBS […] containing 5% skim milk for one hour. Then, antigen-antibody reaction was induced with diluted primary antibody at 4° C. for overnight. The blot was washed with TTBS, followed by reaction with horseradish peroxidase conjugated anti-IgGs diluted in TTBS containing 5% skim milk (1:5000) at room temperature for one hour. The blot was washed again with TTBS to eliminate non-specific binding of antigen-antibody. Photographs were developed/printed on X-ray film (Kodak) using ECL kit (Pierce) containing peroxidase substrate to identify each protein.

Molecule | p21 expression (immunofluorescence) (p21waf1/cip1 [1]; senescent cells) | p21 expression (immunofluorescence) (p21waf1/cip1 [1]; young cells) | cyclin D1 expression (immunofluorescence) (cyclin D1; senescent cells, 300 μM ACI) | p-Ser485/491-AMPKα expression after suppressing PKA (p-Ser485/491-AMPKα) | Ser485/491-AMPKα phosphorylation (p-Ser485/491-AMPKα; senescent cells) | Ser485/491-AMPKα phosphorylation (p-Ser485/491-AMPKα; young cells) | p21 expression after suppressing PKA (p21waf1/cip1 [2]) | p21 expression (immuno-blotting) (p21waf1/cip1 [2]) | cyclin D1 expression (immunofluorescence) (cyclin D1; young cells)
Nc1ncnc2c1ncn2C1CCCO1 (stereo not drawn) [ACI, 9-(tetrahydro-2′-furyl)adenine] | reduced | increased | reduced | not changed | did not affect | reduced | not changed | reduced | –
lysophosphatidic acid [LPA] | – | decrease | – | not changed at all | gradually increased | reduced | not changed at all | reduced | decrease
